Reference: publication PMC11267533, “Ligandability at the Membrane Interface of GPx4 Revealed through a Reverse Micelle Fragment Screening Platform” (JACS Au, 2024)
Several values for one entry are separate records, joined by “and”; a condition that tells them apart may be missing. Equal entries are not always repeated. Where two headings read alike, the source gives them in different places.

Columns and labels:
[1] = Fragment partitioning in DLPC/DPC mmRMs by 2D 1H-1H NOESY; assay type: physicochemical; details: 5 mM fragment, deuterated pentane and hexanol, no GPx4
Experimental: We sought to understand the potential membrane partitioning of these fragments by evaluating their behavior in mmRMs, again using fragments 1, 5, and 6 as our benchmarks. To evaluate fragment partitioning in the mmRM system, 2D ^1H–^1H NOESY experiments were performed, which report on the spatial proximity of intra- and intermolecular nuclei. […] The mmRMs were constructed from deuterated pentane and hexanol to reduce solvent signal and associated NOESY artifacts, which were still present, but NOESY measurements were possible.[60] […] Fragment 5 was the most hydrophobic fragment hit from this screen with a predicted cLog D of ∼2. […] A lack of NOEs to pentane is due to the necessity of using deuterated pentane for artifact reduction and attempts to directly observe solvent NOEs failed. The most hydrophilic fragment, fragment 6 with a predicted cLog D of about −2, is expected to predominantly have intermolecular interactions with the water phase of the mmRM (Figures 5c and S4c). However, interference from the water peak introduced streaking and precluded the visualization of clear cross-peaks.
(§1) Partitioning coefficients for fragment hits and analogues were calculated using a Marvin Log D calculator (Chemaxon) and were used to prioritize fragments for 2D NOESYs. mmRMs were premade as previously described and loaded with 5 mM dried fragment 1, 5, or 6 before shaking overnight. A high concentration of fragments is needed for these experiments to observe the intermolecular NOEs between the fragments and the membrane model components. For the DHPC/DMPC samples, the q = 1.0 bicelles were constructed routinely,[55] as described in the Supporting Information, with an additional step to ensure the complete removal of water before experimentation. An aliquot of buffer (100 mM Bis-Tris pH 6.0, 100 mM NaCl, and 10 mM DTT) was frozen and freeze-dried overnight to remove residual water. The dried buffer was then resuspended in 100% D2O, mixed, and frozen before another round of freeze-drying. […]

[2] = biological target: T1, GPx4 embedded in a mmRM (membrane-bound GPx4) (Homo sapiens, UniProt P36969, U73G); assay: NMR (15N-HSQC) titration of fragments against GPx4 embedded in DLPC/DPC mmRM, apparent Kd; assay type: binding; details: ± standard error of global Kd fit
T1 construct: Truncated U46G-GPx4 with a TEV cleavable poly-histidine tag was inserted into vector; poly-histidine tag with TEV cleavage site; host or cells: BL21 (DE3) E. coli
T1 sequence (P36969 1-170 isoform P36969-2 U46G): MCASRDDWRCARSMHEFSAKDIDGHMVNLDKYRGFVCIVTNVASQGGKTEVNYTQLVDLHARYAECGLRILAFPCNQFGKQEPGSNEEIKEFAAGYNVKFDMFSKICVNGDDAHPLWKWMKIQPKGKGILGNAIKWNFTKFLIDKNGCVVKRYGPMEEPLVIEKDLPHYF
From the text: To assess whether the fragment hits are bound specifically to GPx4 and to calculate affinity, we performed NMR-based titrations. Chemical shift changes that approach saturation in a structurally localized manner target indicate specific binding.[24] This allows true positive hits to be separated from false positives and weak or nonspecific binders. Additionally, NMR-based titrations allow for the extraction of a binding affinity (Kd). To calculate apparent Kd values, CSP cutoffs were used to isolate the resonances with most shifting using 1 standard deviation above the average CSP. All 14 fragments identified from the deconvolutions were titrated up to 400 μM or 1 mM if needed. Of the 14, 9 had apparent Kds less than 1 mM and were identified as hits. Observed here is a 0.47% hit rate with best affinities in the μM range for the membrane-bound form of GPx4 and is consistent with ligandable and potentially druggable targets.[14],[57] […] The remaining five fragments, 10–14, were ruled out as weaker (>∼1 mM) or nonspecific binders. Weak or nonspecific binding could indicate that fragments partitioning to the mmRM surface and perturb the protein spectrum through a simple change in the chemical environment at the interface, among other possible nonspecific effects. […] We note that the weaker and nonspecific fragments were only eliminated due to interaction modes that are too weak or unproductive for advancement toward inhibitors; yet, binding was nevertheless detected. […] We note here that apparent Kd values reported in this study account for a total amount of fragment and protein within the mmRM sample and are not corrected for any potential concentrating effect due to localization of fragment to the mmRM surface or water phase.
NMR samples were prepared with ^15N-isotopically labeled protein with 10% v/v of d-pentane as the lock solvent (Sigma-Aldrich, St. Louis, MO). All NMR spectra were collected at 25 °C on a 700 MHz Bruker Avance III instrument. All NMR spectra were processed using NMRPipe[66] and analyzed using NMRFAM-Sparky.[67] Chemical shifts for GPx4 (BMRB 50955) were assigned from those previously published.[52] Chemical shift perturbations from ^15N-HSQC spectra were calculated using the following formula [drawing 1] where Δ^1H and Δ^15N are the changes in ^1H and ^15N chemical shifts, respectively.
The 14 fragments isolated from deconvolutions were purchased from Life Chemicals (fragments 1, 4, 6, and 11, and 12–14), Combi-Blocks (2, 3, 5, 9, and 10), or ChemBridge Hit2Lead (7 and 8). All fragment 1 and 5 analogues were also purchased from ChemBridge Hit2Lead. Fragments and analogues purchased from Life Chemicals and Hit2Lead are 90+% pure, while the fragments purchased from Combi-Blocks ranged from 95 to 97% pure. The day prior to the titration, a double-volume sample of encapsulated GPx4 was made before being split up into two separate vials. Half of the sample was added to the vial containing predried fragment corresponding to 400 μM or 1 mM. […] If they were, then the two samples were mixed to produce varying concentrations and to measure a titration curve. The top-shifting resonances were determined by calculating the average CSP at 400 μM or 1 mM and 1 and 2 standard deviations (σ) above that average. The CSP for the resonance at each fragment concentration was extracted and fit to a curve using an affinity equation that accounts for ligand depletion [drawing 2]
Any resonance producing a curve with an R^2 below 0.85 was removed, and the remaining resonances were then used to fit a global apparent Kd curve for the fragment hit. Standard error for Kd from the global fit of all of the selected residues is reported.

[3] = Fragment partitioning in DHPC/DMPC bicelles by 2D 1H-1H NOESY; assay type: physicochemical; details: 5 mM fragment, 100% D2O
From the text: To confirm partitioning behavior, we tested fragments in DHPC/DMPC bicelles, which use a bulk aqueous solvent, and the hydrophobic phase is confined to the bicelle interior. To successfully collect NOESY data, the sample solvent was composed of 100% D2O. […] Together, the results highlight the partitioning behavior of fragments that bind to GPx4. Hydrophilic, hydrophobic, or fragments that partition to the surfactant shell are all capable of binding to the membrane-bound state of GPx4 and may be detected using this method.
as §1, with “freeze-drying. The components were then resuspended in 100% D2O again before being incorporated into the DHPC fraction of the bicelle. The DHPC solution was then mixed with dried DMPC, and bicelle formation proceeded. The NOESY experimental design was based on a previous work.[60] All NMR spectra were collected at 25 °C on a 700 MHz Bruker Avance III instrument. The 2D data was collected with a 90° pulse width between 10.2 and 11.0 μs, which was optimized prior to each experiment. 128 complex increments were collected in the State-TPPI mode with 8 scans per increment, 2 s recycle time, and 250 ms mixing time.” for “freeze-drying.”

[4] = Table 1, GPx4 in DLPC/DPC mmRM, NMR titration up to 400 μM or 1 mM, read-out: Kd (apparent)
[5] = Table 2, analogues of fragment 5, GPx4 in mmRM, read-out: Apparent Kd

| Kd [2, 4] | Kd [2, 5] | SMILES | Partitioning in mmRM (intermolecular NOEs) [1] | Partitioning in bicelles (intermolecular NOEs) [3] |
| --- | --- | --- | --- | --- |
| 105 ± 30 µM | – | O=c1cc(Nc2ccccc2)cc[nH]1 [Fragment 1, 4-(phenylamino)-1,2-dihydropyridin-2-one] | clear NOE cross-peaks to the surfactant shell | partitions to the bicelle |
| 220 ± 90 µM | 220 ± 90 µM | O=c1oc2ccc(O)cc2s1 [Fragment 5, 5-hydroxy-1,3-benzoxathiol-2-one] | the majority of the fragment must reside in the alkane phase of the reverse micelle | full partitioning into the hydrophobic core of the bicelles |
| 230 ± 60 µM | – | COCCNCc1ccncc1.Cl [Fragment 6, (2-methoxyethyl)(4-pyridinylmethyl)amine hydrochloride] | prefers to reside in the water core of the mmRM | no NOE cross-peaks to bicelle surfactants were observed |
| – | ~30 µM and 30 µM | O=c1oc2c(-c3ccc(Cl)c(Cl)c3)cc(O)cc2s1 [Analog 5.5] | – | – |
